For eleven molecules, IC50 and melting point results are on record in patent US8372864B2, “1-oxo-isoindoline-4-carboxamide and 1-oxo-1,2,3,4-tetrahydroisoquinoline-5-carboxamide derivatives, preparation and therapeutic use thereof” (Sanofi, priority 2007, dated 2013).

Structures can show the parent of a compound that is named as a salt.

For one data set, the target named is T1, purified recombinant form of human BACE1 aspartyl protease (Homo sapiens, UniProt P56817).
T1 construct: hexahistidine (C); made in house; host or cells: Drosophila cells
T1 sequence (P56817 46-501): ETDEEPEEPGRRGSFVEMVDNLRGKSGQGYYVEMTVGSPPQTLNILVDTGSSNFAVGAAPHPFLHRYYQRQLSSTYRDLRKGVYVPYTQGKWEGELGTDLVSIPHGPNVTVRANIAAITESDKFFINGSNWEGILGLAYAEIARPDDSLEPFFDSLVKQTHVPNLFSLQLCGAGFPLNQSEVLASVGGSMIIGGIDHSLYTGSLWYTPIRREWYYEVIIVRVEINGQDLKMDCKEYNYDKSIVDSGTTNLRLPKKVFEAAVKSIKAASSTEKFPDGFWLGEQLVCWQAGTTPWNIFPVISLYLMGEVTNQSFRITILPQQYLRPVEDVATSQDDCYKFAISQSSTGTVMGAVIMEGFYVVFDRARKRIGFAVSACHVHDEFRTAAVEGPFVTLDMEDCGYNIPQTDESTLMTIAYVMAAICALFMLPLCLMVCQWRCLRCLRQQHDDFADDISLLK
The experiment in a line: in vitro inhibition of β-secretase (BACE1) activity, FRET cleavage of fluorogenic peptide substrate FS1. Type of data set: biochemical. The settings on record: purified enzyme 10 nM, substrate FS1 5 μM, sodium acetate buffer pH 4.5, 37° C., 45 minutes; read-out: IC50 (concentration of product giving 50% inhibition of the enzyme activity). As for the experimental part: The tests consisted in measuring the in vitro inhibition of the β-secretase activity by the compounds of the invention.
The β-secretase activity measured corresponds to that of a purified recombinant form of human BACE1 aspartyl protease (the latter comprising a hexahistidine tag at the C-terminal position) produced by expression in Drosophila cells. The purified enzyme is conditioned in TRIS buffer (18 mM) at pH 7.5 containing NaCl (0.45M), MnCl2 (0.9 mM), CaCl2 (0.9 mM), α-D-methylmannoside and 10% glycerol, and stored at −80° C. until use.
The BACE1 activity is measured from the cleavage of a fluorogenic peptide substrate, known as FS1, described originally by Ermolieff et Coll. (2000, Biochemistry, 39, 12450-12456), and based on the principle of fluorescence resonance energy transfer (FRET); the cleavage of the FS1 peptide is measured from the increase of the fluorescent signal emitted by the EDANS (or 5-[(2-aminoethyl)amino]naphthalene-[…]) group. The test is carried out in a 96-well microplate in order to determine the inhibition of the enzyme activity by the products of the invention. The substrate FS1 is solubilized to a concentration of 1 mM in 100% dimethylsulfoxide (DMSO) and stored at −20° C. until use. The dilutions of the products to be tested are prepared in DMSO starting from a 10 mM stock solution. The products of the invention, at final concentrations of 0.003 to 10 μM are incubated at 37° C. with the substrate FS1 (final concentration of 5 μM) and the purified enzyme (final concentration of 10 nM) in the sodium acetate buffer (0.1M), pH 4.5 containing 0.02% of CHAPS detergent and 200 mM NaCl for 45 minutes. […] When the incubation is finished, the fluorescence is measured in a spectrofluorimeter, at the excitation wavelength of 355 nm and emission wavelength of 509 nm. For each product concentration tested, the fluorescent signal is compared to the maximum signal obtained when the substrate FS1 is only incubated with the enzyme.
The inhibitory activity of the products of the invention is then evaluated by the measurement of the IC50 (concentration of product giving 50% inhibition of the enzyme activity) using a non-linear regression analysis (computer application software XLfit, IDBS™).
Turning to `CCCC(CCC)N1Cc2c(C(=O)N[C@@H](Cc3ccccc3)[C@H](O)CNCc3cccc(C(F)(F)F)c3)cccc2C1=O` [Compound 1, N-[(1S,2R)-1-benzyl-2-hydroxy-3-{[3-(trifluoromethyl)benzyl]amino}propyl]-1-oxo-2-(1-propylbutyl)isoindoline-4-carboxamide hydrochloride (1:1)], the IC50 came to 770 nM.
For `CCCC(CCC)N1CCc2c(C(=O)N[C@@H](Cc3cc(F)cc(F)c3)[C@H](O)CNC3(c4cccc(C(F)(F)F)c4)CC3)cc(-c3cccc(C#N)c3)cc2C1=O` [Compound 16, N-[(1S,2R)-1-(3,5-difluorobenzyl)-2-hydroxy-3-({1-[3-(trifluoromethyl)phenyl]cyclopropyl}amino)propyl]-7-(3-cyanophenyl)-1-oxo-2-(1-propylbutyl)-1,2,3,4-tetrahydroisoquinoline-5-carboxamide hydrochloride (1:1)], the IC50 was 390 nM.
Take `CCCC(CCC)N1CCc2c(C(=O)N[C@@H](Cc3cc(F)cc(F)c3)[C@H](O)CNC3(c4cccc(C(F)(F)F)c4)CC3)cc(N(C)S(C)(=O)=O)cc2C1=O` [Compound 9, N-[(1S,2R)-1-(3,5-difluorobenzyl)-2-hydroxy-3-({1-[3-(trifluoromethyl)phenyl]cyclopropyl}amino)propyl]-7-[methyl(methylsulfonyl)amino]-1-oxo-2-(1-propylbutyl)-1,2,3,4-tetrahydroisoquinoline-5-carboxamide hydrochloride (1:1)]: the IC50 was 48 nM.
Regarding `CCCC(CCC)N1CCc2c(C(=O)N[C@@H](Cc3cc(F)cc(F)c3)[C@H](O)CNC3(c4cccc(C(F)(F)F)c4)CC3)cc(-c3ccccc3C#N)cc2C1=O` [Compound 17, N-[(1S,2R)-1-(3,5-difluorobenzyl)-2-hydroxy-3-({1-[3-(trifluoromethyl)phenyl]cyclopropyl}amino)propyl]-7-(2-cyanophenyl)-1-oxo-2-(1-propylbutyl)-1,2,3,4-tetrahydroisoquinoline-5-carboxamide hydrochloride (1:1)], the IC50 turned out to be 630 nM.

Tested on in another data set: not given
Test: not given
Settings: not given
Usually melting point stands for the temperature, or range, at which the solid turns liquid. Consider `CCCC(CCC)N1CCc2c(C(=O)N[C@@H](Cc3ccccc3)[C@H](O)CNC3(c4cccc(C(F)(F)F)c4)CC3)cccc2C1=O.Cl`, for which the melting point came out at 174 °C.
In turn, `CCCC(CCC)N1Cc2c(C(=O)N[C@@H](Cc3cc(F)cc(F)c3)[C@H](O)CNC3(c4cccc(C(F)(F)F)c4)CC3)cc(N(C)S(C)(=O)=O)cc2C1=O.Cl` registered a melting point of 194 °C.
Molecule `CC(c1ccc(F)cc1)N1CCc2c(C(=O)N[C@@H](Cc3cc(F)cc(F)c3)[C@H](O)CNC3(c4cccc(C(F)(F)F)c4)CC3)cccc2C1=O.Cl` (some centres unmarked) yielded a melting point of 157 °C.
The molecule `Cl.O=C(N[C@@H](Cc1cc(F)cc(F)c1)[C@H](O)CNC1(c2cccc(C(F)(F)F)c2)CC1)c1cccc2c1CCN(Cc1ccccc1)C2=O` returned a melting point of 178 °C.
As to `CCCC(CCC)N1CCc2c(C(=O)N[C@@H](Cc3cc(F)cc(F)c3)[C@H](O)CNC3(c4cccc(C(F)(F)F)c4)CC3)cc(C(F)(F)F)cc2C1=O.Cl`, the melting point was 196 °C.
In turn, `CCCC(CCC)N1CCc2c(C(=O)N[C@@H](Cc3cc(F)cc(F)c3)[C@H](O)CNC3(c4cccc(C(F)(F)F)c4)CC3)cccc2C1=O.Cl` yielded a melting point of 172 °C.
For `CCCCCN1CCc2c(C(=O)N[C@@H](Cc3cc(F)cc(F)c3)[C@H](O)CNC3(c4cccc(C(F)(F)F)c4)CC3)cccc2C1=O.Cl`, the melting point amounted to 165 °C.
